Measurements taken from US20250018048A1, “FLUCONAZOLE-COX INHIBITOR HYBRIDS: A DUAL-ACTING CLASS OF ANTIFUNGAL AZOLES” (Ramot at Tel-Aviv University Ltd., priority 2022, published 2025).
In brackets after ≈: the same amount, converted by molar mass.

Key:
Type in all cases: cell-based
[1] = test system: erg11ΔΔ/erg3ΔΔ mutant C. albicans; assay: Growth curve analysis of C. albicans lacking CYP51; details: YPAD, 30° C., 48 h
Method: The clinically used FLC and VOR act primarily by preventing ergosterol biosynthesis via inhibition of CYP51. Analysis was done to determine whether fungal growth inhibition by the hybrids required the presence of the ERG11 gene that encodes for CYP51. The antifungal activities of hybrids 1 and 5 and of FLC and VOR were determined against an erg11ΔΔ/erg3ΔΔ mutant C. albicans strain and against C. albicans SN152 from which this double knockout strain was derived (Table S2). […] Yeast growth was followed at OD600 over 48 h in 96-well plates containing serial double dilutions of the tested hybrids.
Cells of erg11ΔΔ/erg3ΔΔ mutant C. albicans were grown in YPAD media at 30° C. and treated with different concentrations of the tested hybrids. Growth was measured by recording the OD600 values every 40 minutes over a 48-h course on an automated plate reader.
Growth curve analyses: Growth curves were determined using the double-dilution method in 96-well plates. Starter cultures were streaked from glycerol stock onto YPAD agar plates and grown for 24 h at 30° C. Colonies were suspended in 1 mL PBS and diluted to 1×10^−3 OD600 and then diluted 1:100 into fresh medium. Hybrids dissolved in DMSO were added to YPAD broth (32 μL stock solution in 1218 μL of YPAD broth), and serial double dilutions of hybrids in YPAD were prepared in flat-bottomed 96-well microplates (Corning) to enable testing of concentrations ranging from 64 μg/mL to 1 μg/mL. Control wells with yeast cells but no drug (100% growth) and blank wells containing only YPAD (0% growth) were prepared. An equal volume (100 μL) of yeast suspensions in YPAD broth was added to each well with the exceptions of the blank wells. Growth was determined at 30° C. by measuring the OD600 using a plate reader (Infinite M200 PRO, Tecan) every 40 minutes over 48 h. Each concentration was tested in triplicate, and results were confirmed by two independent sets of experiments. FLC and VOR were used as control drugs.

[2] = test system: C. parapsilosis ATCC 22019; assay: MIC80 broth double-dilution assay; details: YPAD medium, 30° C., 24 h; for MIC80: Lodderomyces parapsilosis, ATCC22019, read-out: MIC80 against C. parapsilosis 22019
Procedure, shortened: (§1)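 Modified CLSI M27-A3 broth double-dilution in YPAD over 64 to 0.003 μg/mL; plates incubated 24 h at 30° C. MIC80 defined by OD600 reduction of >80% against no-drug wells.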

[3] = test system: C. tropicalis 660; assay: MIC80 broth double-dilution assay; details: YPAD medium, 30° C., 24 h; for MIC80: Candida tropicalis, 660, read-out: MIC80 against C. tropicalis 660
Procedure, shortened: as §1

[4] = test system: C. dubliniensis T-99; assay: MIC80 broth double-dilution assay; details: YPAD medium, 30° C., 24 h; for MIC80: Candida dubliniensis, T99, read-out: MIC80 against C. dubliniensis T-99
Procedure, shortened: as §1

[5] = test system: C. albicans P-87; assay: MIC80 broth double-dilution assay; details: YPAD medium, 30° C., 24 h; for MIC80: Candida albicans, P87, read-out: MIC80 against C. albicans P-87
Procedure, shortened: as §1

[6] = test system: C. albicans ATCC 24433; assay: MIC80 broth double-dilution assay; details: YPAD medium, 30° C., 24 h; for MIC80: Candida albicans, ATCC24433, read-out: MIC80 against C. albicans 24433
Procedure, shortened: as §1

[7] = test system: C. albicans SC5314; assay: MIC80 broth double-dilution assay; details: YPAD medium, 30° C., 24 h; for MIC80: Candida albicans, SC5314, read-out: MIC80 against C. albicans SC5314
Procedure, shortened: as §1

[8] = test system: C. albicans ATCC 90028; assay: MIC80 broth double-dilution assay; details: YPAD medium, 30° C., 24 h; for MIC80: Candida albicans, ATCC90028, read-out: MIC80 against C. albicans 90028
Procedure, shortened: as §1

[9] = test system: C. guilliermondii T-47; assay: MIC80 broth double-dilution assay; details: YPAD medium, 30° C., 24 h; for MIC80: Meyerozyma guilliermondii, T47, read-out: MIC80 against C. guilliermondii T-47
Procedure, shortened: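 Broth double dilution following modified CLSI M27-A3, YPAD medium, compound range 64 to 0.003 μg/mL; inoculum from 1×10^−3 OD600 suspension diluted 1:100. After 24 h at 30 °C, MIC80 taken as lowest concentration reducing OD600 by >80% versus no-drug control; triplicates, fluconazole and voriconazole as controls.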

[10] = test system: C. albicans 742 (erg11ΔΔ/erg3ΔΔ mutant C. albicans strain); assay: MIC80 broth double-dilution assay, strain lacking CYP51; details: 24 h; for MIC80: Candida albicans, read-out: MIC80 against C. albicans 742; for MIC80 against C. albicans 742: YPAD medium, 30° C., erg11ΔΔ/erg3ΔΔ mutant lacking CYP51
Procedure, shortened: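 Double-knockout C. albicans and parent SN152 grown in YPAD at 30 °C with serial double dilutions from 64 to 0.003 μg/mL; OD600 read after 24 h (growth followed over 48 h). MIC80 taken as >80% OD600 reduction versus no-drug wells; triplicate, two independent experiments.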

[11] = test system: C. albicans SN152; assay: MIC80 broth double-dilution assay; details: for MIC80: Candida albicans, SN152, 24 h, read-out: MIC80 against C. albicans SN152; for MIC80 against C. albicans SN152: YPAD medium, 30° C., 24 h, parent strain of the erg11ΔΔ/erg3ΔΔ mutant
Procedure, shortened: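 CLSI M27-A3-based broth microdilution in YPAD, cells diluted from 1×10^−3 OD600 suspension 1:100, hybrids double-diluted from 64 to 0.003 μg/mL. After 24 h at 30 °C, MIC80 is the OD600 reduction >80% versus no-drug wells; triplicate, two independent experiments.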

[12] = entire range of concentrations (64 to 1 μg/mL)

| Compound | Effect on growth (OD600) of the double knockout mutant [1, 12] | MIC80 [2] [µg/mL] | MIC80 [3] [µg/mL] | MIC80 [4] [µg/mL] | MIC80 [5] [µg/mL] | MIC80 [6] [µg/mL] | MIC80 [7] [µg/mL] | MIC80 [8] [µg/mL] | MIC80 [9] [µg/mL] | MIC80 [10] [µg/mL] | MIC80 against C. albicans 742 [10] | MIC80 [11] [µg/mL] | MIC80 against C. tropicalis 660 [3] [µg/mL] | MIC80 against C. dubliniensis T-99 [4] [µg/mL] | MIC80 against C. albicans P-87 [5] [µg/mL] | MIC80 against C. albicans 24433 [6] [µg/mL] | MIC80 against C. albicans SC5314 [7] [µg/mL] | MIC80 against C. albicans 90028 [8] [µg/mL] | MIC80 against C. guilliermondii T-47 [9] [µg/mL] | MIC80 against C. albicans SN152 [11] [µg/mL] | other results |
| --- | --- | --- | --- | --- | --- | --- | --- | --- | --- | --- | --- | --- | --- | --- | --- | --- | --- | --- | --- | --- | --- |
| OC(Cn1cncn1)(Cn1cncn1)c1ccc(F)cc1F [FLC, fluconazole] | no significant effect on the growth | 1 (≈ 3.27 µM) | 1 (≈ 3.27 µM) | 0.25 (≈ 0.816 µM) | 1 (≈ 3.27 µM) | 1 (≈ 3.27 µM) | 0.5 (≈ 1.63 µM) | 0.5 (≈ 1.63 µM) | 4 (≈ 13.1 µM) | > 64 | inactive | 0.5 (≈ 1.63 µM) |  |  |  |  |  |  |  |  |  |
| CC(C)Cc1ccc([C@H](C)C(=O)NC[C@](O)(Cn2cncn2)c2ccc(F)cc2F)cc1 [Hybrid 1] | clear dose-dependent reduction in growth |  |  |  |  |  |  |  |  |  | 64 µg/mL (≈ 145 µM) |  | 0.03 (≈ 0.0678 µM) | 0.06 (≈ 0.136 µM) | 0.003 (≈ 0.00678 µM) | 0.007 (≈ 0.0158 µM) | 0.003 (≈ 0.00678 µM) | 0.003 (≈ 0.00678 µM) | 0.06 (≈ 0.136 µM) | 0.003 (≈ 0.00678 µM) | MIC80 against C. parapsilosis 22019 [2]: 0.007 µg/mL (≈ 0.0158 µM) |
| C[C@H](C(=O)NC[C@](O)(Cn1cncn1)c1ccc(F)cc1F)c1ccc(-c2ccccc2)c(F)c1 [Hybrid 5] | clear dose-dependent reduction in growth |  |  |  |  |  |  |  |  |  | 64 µg/mL (≈ 133 µM) |  | 0.06 (≈ 0.125 µM) | 0.5 (≈ 1.04 µM) | 0.015 (≈ 0.0312 µM) | 0.03 (≈ 0.0624 µM) | 0.007 (≈ 0.0146 µM) | 0.015 (≈ 0.0312 µM) | 0.5 (≈ 1.04 µM) | 0.007 (≈ 0.0146 µM) |  |
| C[C@@H](c1ncncc1F)[C@](O)(Cn1cncn1)c1ccc(F)cc1F [VOR, voriconazole, reference compound] |  | 0.015 (≈ 0.0429 µM) | 0.12 (≈ 0.344 µM) | 0.03 (≈ 0.0859 µM) | 0.007 (≈ 0.02 µM) | 0.015 (≈ 0.0429 µM) | 0.007 (≈ 0.02 µM) | 0.007 (≈ 0.02 µM) | 0.06 (≈ 0.172 µM) | > 64 | inactive | 0.007 (≈ 0.02 µM) |  |  |  |  |  |  |  |  | Effect on growth (OD600) of the double knockout mutant ([1]; at 64 μg/mL, the highest concentration tested): Modest reduction in growth |
